Measurements reported in patent US20240327381A1, “Compounds and Compositions for Selective Degradation of Engineered Proteins” (Celgene Corporation, priority 2023, published 2024).

Legend:
Helios = molecular target: T1, Helios (Homo sapiens, UniProt Q9UKS7); experiment: Helios degradation in Jurkat/Helios/HiBit cells (Nano-Glo luminescence); assay type: cell-based; settings: 18 hr, read-out: Helios Jurkat Hibit IC50
T1 construct: endogenous in cells; host or cells: Jurkat cells, CRISPR/Cas9 knock-in of HiBit at the IKZF2 locus
T1 sequence (Q9UKS7 whole entry): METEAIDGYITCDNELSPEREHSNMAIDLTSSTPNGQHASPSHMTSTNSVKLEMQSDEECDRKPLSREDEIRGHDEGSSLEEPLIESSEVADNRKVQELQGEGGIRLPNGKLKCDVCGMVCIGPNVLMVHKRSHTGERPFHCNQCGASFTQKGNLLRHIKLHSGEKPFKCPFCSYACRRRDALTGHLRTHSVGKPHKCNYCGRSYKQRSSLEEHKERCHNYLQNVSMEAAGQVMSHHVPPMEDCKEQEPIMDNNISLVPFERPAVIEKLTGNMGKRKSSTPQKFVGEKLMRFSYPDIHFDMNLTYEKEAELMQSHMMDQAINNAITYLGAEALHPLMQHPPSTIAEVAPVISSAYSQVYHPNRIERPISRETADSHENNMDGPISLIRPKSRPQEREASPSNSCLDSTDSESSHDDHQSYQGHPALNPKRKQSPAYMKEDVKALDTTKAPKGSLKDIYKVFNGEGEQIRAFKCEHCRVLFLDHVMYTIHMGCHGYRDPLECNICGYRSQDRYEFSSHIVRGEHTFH
T1 sequence (Q96SW2 whole entry, further chain): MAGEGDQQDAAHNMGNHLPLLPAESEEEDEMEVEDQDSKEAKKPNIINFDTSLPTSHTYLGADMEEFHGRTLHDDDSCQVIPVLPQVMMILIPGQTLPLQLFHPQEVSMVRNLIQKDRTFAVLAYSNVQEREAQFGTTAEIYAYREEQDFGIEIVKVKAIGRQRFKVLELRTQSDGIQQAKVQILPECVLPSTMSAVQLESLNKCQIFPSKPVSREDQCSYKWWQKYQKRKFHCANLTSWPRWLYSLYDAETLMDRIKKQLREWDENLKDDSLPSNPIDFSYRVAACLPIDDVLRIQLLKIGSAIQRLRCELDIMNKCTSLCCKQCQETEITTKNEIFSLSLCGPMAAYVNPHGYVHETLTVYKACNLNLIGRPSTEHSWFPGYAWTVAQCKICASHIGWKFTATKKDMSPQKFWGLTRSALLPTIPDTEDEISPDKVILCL
T1 sequence (Q16531 whole entry partner): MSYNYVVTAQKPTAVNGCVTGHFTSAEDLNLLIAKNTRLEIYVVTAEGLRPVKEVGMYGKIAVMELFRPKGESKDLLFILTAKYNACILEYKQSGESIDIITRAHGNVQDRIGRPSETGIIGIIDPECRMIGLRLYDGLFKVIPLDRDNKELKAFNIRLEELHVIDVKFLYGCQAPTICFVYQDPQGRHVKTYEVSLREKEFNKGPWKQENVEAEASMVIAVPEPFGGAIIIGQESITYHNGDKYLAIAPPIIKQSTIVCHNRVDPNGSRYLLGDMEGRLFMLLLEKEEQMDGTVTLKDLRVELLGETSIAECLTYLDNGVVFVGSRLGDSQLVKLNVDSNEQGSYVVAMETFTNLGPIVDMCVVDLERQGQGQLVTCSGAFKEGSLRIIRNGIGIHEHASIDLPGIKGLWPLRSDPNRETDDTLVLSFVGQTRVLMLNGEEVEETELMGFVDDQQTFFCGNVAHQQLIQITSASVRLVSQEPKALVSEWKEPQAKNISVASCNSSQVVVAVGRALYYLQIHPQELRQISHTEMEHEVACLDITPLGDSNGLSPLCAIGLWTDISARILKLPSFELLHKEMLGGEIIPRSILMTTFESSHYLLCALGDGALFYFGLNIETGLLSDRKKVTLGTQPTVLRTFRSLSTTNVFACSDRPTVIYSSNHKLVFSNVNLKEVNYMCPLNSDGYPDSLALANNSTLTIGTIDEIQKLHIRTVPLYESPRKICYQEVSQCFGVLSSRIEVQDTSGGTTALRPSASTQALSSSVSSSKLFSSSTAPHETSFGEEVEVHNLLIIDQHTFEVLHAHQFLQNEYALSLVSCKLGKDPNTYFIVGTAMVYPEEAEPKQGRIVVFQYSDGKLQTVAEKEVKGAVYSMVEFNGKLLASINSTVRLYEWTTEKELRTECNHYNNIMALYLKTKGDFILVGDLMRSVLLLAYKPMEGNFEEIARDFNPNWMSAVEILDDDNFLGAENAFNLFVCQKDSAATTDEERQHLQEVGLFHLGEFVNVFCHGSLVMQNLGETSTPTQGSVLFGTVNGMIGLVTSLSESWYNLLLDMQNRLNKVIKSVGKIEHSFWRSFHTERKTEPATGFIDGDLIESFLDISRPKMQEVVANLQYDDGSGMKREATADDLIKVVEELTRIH
Description: For Helios, a stable Jurkat cell line was engineered using CRISPR/Cas9 to insert an in-frame HiBit tag into the carboxy-terminal reading frame of the IKZF2 gene. The sequence of human Helios is shown below:
Test compounds were transferred to 1536 well plates using an acoustic dispenser, and Jurkat/Helios/HiBit cells in DMEM/10% FCS were plated at 10,000 cells/well in a final volume of 5 μL. Cells were incubated at 37 C, 95% RH for 18 hr. Luciferase activity was measured by adding 2 μL/well of Nano-Glo reagent (Promega), incubating at RT for 30 min, and reading luminescence on a microtiter plate reader.
(§1) To determine the EC50 value of a compound for the degradation of a given substrate (concentration of compound that achieves half the maximum degradation observed), a four-parameter logistic model (sigmoidal dose-response model) (FIT=(A+{(B−A)/1+[(C/x)D]})) where C is the inflection point (EC50), D is the […], and A and B are the low and high limits of the fit, respectively) was used. All substrate degradation curves were processed and evaluated using ActivityBase (IDBS), a data analysis software package. Ymax is the % protein degraded (Ymin=100−Ymax and is minimum percent protein remaining).

[1] = molecular target: T2, IKZF1 ZNF2_ZNF3 Q1F degron-tagged CD19 CAR (Homo sapiens, UniProt Q13422, Q146F); experiment: Degradation of Q1F degron-tagged CD19 CAR in Jurkat cells (flow cytometry of CAR levels); assay type: cell-based; settings: for DC50: Jurkat cells expressing CD19 CAR tagged with IKZF1 ZNF2_ZNF3 Q1F, 18 hours at 37° C., CAR levels normalized to untreated cells, read-out: Q1F Jurkat IC50; for Dmax: Ymax is the % protein degraded, Jurkat cells expressing Q1F degron-tagged CD19 CAR, 18 hours, read-out: Q1F Jurkat-YMax
T2 construct: ZNF2_ZNF3 Q1F degron (GERPFFCNQCGASFTQKGNLLRHIKLHSGEKPFKCHLCNYACRRRDALTGHLRTHS); fused on or other part: anti-CD19 scFv, CD28 transmembrane domain, 4-1BB costimulatory domain, CD3 zeta signaling domain (the CAR that carries the degron), and Nluc
T2 sequence (Q13422 whole entry Q146F, the tested form may be a part): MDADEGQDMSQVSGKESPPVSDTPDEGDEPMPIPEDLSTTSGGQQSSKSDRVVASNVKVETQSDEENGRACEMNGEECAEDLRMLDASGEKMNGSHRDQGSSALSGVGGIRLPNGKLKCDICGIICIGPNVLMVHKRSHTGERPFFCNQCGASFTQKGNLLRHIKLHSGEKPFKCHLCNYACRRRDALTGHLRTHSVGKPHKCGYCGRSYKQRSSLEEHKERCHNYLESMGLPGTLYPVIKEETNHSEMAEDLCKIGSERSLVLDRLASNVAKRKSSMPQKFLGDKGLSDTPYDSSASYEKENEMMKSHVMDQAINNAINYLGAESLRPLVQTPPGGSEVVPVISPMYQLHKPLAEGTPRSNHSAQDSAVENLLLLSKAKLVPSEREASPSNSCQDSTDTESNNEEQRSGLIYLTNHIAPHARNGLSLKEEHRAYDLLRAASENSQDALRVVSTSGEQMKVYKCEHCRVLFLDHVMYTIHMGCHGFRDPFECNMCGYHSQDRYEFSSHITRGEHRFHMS
Text: Q1F degron-targeting compounds were screened in Jurkat cells engineered to express a IKZF1 ZNF2_ZNF3 Q1F. The cell line was generated with lentiviral vectors containing CD19 CARs tagged with IKZF1 ZNF2_ZNF3 QIF Nluc, which were transduced into Jurkat cells. The CD19 CAR comprised an anti-CD19 scFv, a CD28 transmembrane domain, a 4-1BB costimulatory domain, a CD3ζ signaling domain, and a ZNF2_ZNF3 Q1F degron (GERPFFCNQCGASFTQKGNLLRHIKLHSGEKPFKCHLCNYACRRRDALTGHLRTHS; SEQ ID NO: 1; Q1F substitution underlined). Transduced cells were treated with a titration of each small molecule or no drug and then incubated at 37° C. for 18 hours. Cells were washed and stained with appropriate staining reagent to measure CAR levels. The cells were incubated at 4° C. in the staining reagents for 20 mins and then washed 3 times before being read on the flow cytometer. CAR levels were normalized to cells that had not been treated with drug. EC50 and Ymin values were calculated using the resulting titration curve. This identified small molecules that potently degraded the Q1F degron-tagged CARs (Table 1).
as §1

Compound | DC50 (Helios) [nM] | DC50 [1] [nM] | Dmax [1] [%]
O=C1CCC(N2Cc3c(cc(F)c(C4(O)CCN(Cc5ccc6cn[nH]c6c5)CC4)c3F)C2=O)C(=O)N1 (stereo not drawn) [Compound 42, 3-[4,6-difluoro-5-[4-hydroxy-1-(1H-indazol-6-ylmethyl)-4-piperidyl]-1-oxo-isoindolin-2-yl]piperidine-2,6-dione] | ≥ 10000 | 4.39 | 87.7
Cc1ccc(CN2CCC(O)(c3c(F)cc4c(c3F)CN(C3CCC(=O)NC3=O)C4=O)CC2)cc1C (stereo not drawn) [Compound 43, 3-[5-[1-[(3,4-dimethylphenyl)methyl]-4-hydroxy-4-piperidyl]-4,6-difluoro-1-oxo-isoindolin-2-yl]piperidine-2,6-dione] | ≥ 10000 | 2.75 | 80.2
O=C1CCC(N2Cc3c(cc(F)c(C4(O)CCN(Cc5ccc6nc[nH]c6c5)CC4)c3F)C2=O)C(=O)N1 (stereo not drawn) [Compound 44, 3-[5-[1-(3H-benzimidazol-5-ylmethyl)-4-hydroxy-4-piperidyl]-4,6-difluoro-1-oxo-isoindolin-2-yl]piperidine-2,6-dione] | ≥ 10000 | 120 | 82.1
Cc1ccc(CN2CCC(c3c(F)cc4c(c3F)CN(C3CCC(=O)NC3=O)C4=O)CC2)cc1 (stereo not drawn) [Compound 45, 3-(4,6-difluoro-5-(1-(4-methylbenzyl)piperidin-4-yl)-1-oxoisoindolin-2-yl)piperidine-2,6-dione] | ≥ 10000 | 0.343 | 90.6
O=C1CCC(N2Cc3c(cc(F)c(C4CCN(Cc5cc(F)ccc5-n5cccn5)CC4)c3F)C2=O)C(=O)N1 (stereo not drawn) [Compound 47, 3-(4,6-difluoro-5-(1-(5-fluoro-2-(1H-pyrazol-1-yl)benzyl)piperidin-4-yl)-1-oxoisoindolin-2-yl)piperidine-2,6-dione] | ≥ 10000 | 2.5 | 88.8
Cc1cc(Br)cnc1CN1CCC(c2c(F)cc3c(c2F)CN(C2CCC(=O)NC2=O)C3=O)CC1 (stereo not drawn) [Compound 48, 3-(5-(1-((5-bromo-3-methylpyridin-2-yl)methyl)piperidin-4-yl)-4,6-difluoro-1-oxoisoindolin-2-yl)piperidine-2,6-dione] | ≥ 10000 | 2.24 | 87.8
O=C1CCC(N2Cc3c(cc(F)c(C4CCN(Cc5cccc(-n6cccn6)c5)CC4)c3F)C2=O)C(=O)N1 (stereo not drawn) [Compound 49, 3-(5-(1-(3-(1H-pyrazol-1-yl)benzyl)piperidin-4-yl)-4,6-difluoro-1-oxoisoindolin-2-yl)piperidine-2,6-dione] | ≥ 10000 | 0.108 | 91
O=C1CCC(N2Cc3c(cc(F)c(C4CCN(Cc5ncccc5Br)CC4)c3F)C2=O)C(=O)N1 (stereo not drawn) [Compound 50, 3-(5-(1-((3-bromopyridin-2-yl)methyl)piperidin-4-yl)-4,6-difluoro-1-oxoisoindolin-2-yl)piperidine-2,6-dione] | ≥ 10000 | 1.36 | 88.4
O=C1CCC(N2Cc3c(cc(F)c(C4CCN(Cc5ccc(C(F)F)cc5)CC4)c3F)C2=O)C(=O)N1 (stereo not drawn) [Compound 51, 3-(5-(1-(4-(difluoromethyl)benzyl)piperidin-4-yl)-4,6-difluoro-1-oxoisoindolin-2-yl)piperidine-2,6-dione] | ≥ 10000 | 0.097 | 92
O=C1CCC(N2Cc3c(cc(F)c(C4CCN(Cc5ccc(C(F)(F)F)cc5)CC4)c3F)C2=O)C(=O)N1 (stereo not drawn) [Compound 52, 3-(4,6-difluoro-1-oxo-5-(1-(4-(trifluoromethyl)benzyl)piperidin-4-yl)isoindolin-2-yl)piperidine-2,6-dione] | ≥ 10000 | 0.91 | 91.8
O=C1CCC(N2Cc3c(cc(F)c(C4CCN(Cc5ccc6ccccc6n5)CC4)c3F)C2=O)C(=O)N1 (stereo not drawn) [Compound 53, 3-(4,6-difluoro-1-oxo-5-(1-(quinolin-2-ylmethyl)piperidin-4-yl)isoindolin-2-yl)piperidine-2,6-dione] | ≥ 10000 | 0.727 | 93.3
O=C1CCC(N2Cc3c(cc(F)c(C4CCN(Cc5ccc6scnc6c5)CC4)c3F)C2=O)C(=O)N1 (stereo not drawn) [Compound 54, 3-(5-(1-(benzo[d]thiazol-5-ylmethyl)piperidin-4-yl)-4,6-difluoro-1-oxoisoindolin-2-yl)piperidine-2,6-dione] | ≥ 10000 | 0.114 | 93.3
O=C1CCC(N2Cc3c(cc(F)c(C4CCN(Cc5ccc(C(F)(F)F)cc5O)CC4)c3F)C2=O)C(=O)N1 (stereo not drawn) [Compound 55, 3-(4,6-difluoro-5-(1-(2-hydroxy-4-(trifluoromethyl)benzyl)piperidin-4-yl)-1-oxoisoindolin-2-yl)piperidine-2,6-dione] | ≥ 10000 | 0.468 | 88.7
Cc1nc(CN2CCC(c3c(F)cc4c(c3F)CN(C3CCC(=O)NC3=O)C4=O)CC2)c(C)o1 (stereo not drawn) [Compound 56, 3-(5-(1-((2,5-dimethyloxazol-4-yl)methyl)piperidin-4-yl)-4,6-difluoro-1-oxoisoindolin-2-yl)piperidine-2,6-dione] | ≥ 10000 | 0.571 | 84.4
O=C1CCC(N2Cc3c(cc(F)c(C4(O)CCN(Cc5nc6ccccc6s5)CC4)c3F)C2=O)C(=O)N1 (stereo not drawn) [Compound 57, 3-(5-(1-(benzo[d]thiazol-2-ylmethyl)-4-hydroxypiperidin-4-yl)-4,6-difluoro-1-oxoisoindolin-2-yl)piperidine-2,6-dione] | ≥ 10000 | 101 | 63.2
O=C1CCC(N2Cc3c(cc(F)c(C4CCN(Cc5nc6ccccc6s5)CC4)c3F)C2=O)C(=O)N1 (stereo not drawn) [Compound 58, 3-(5-(1-(benzo[d]thiazol-2-ylmethyl)piperidin-4-yl)-4,6-difluoro-1-oxoisoindolin-2-yl)piperidine-2,6-dione] | ≥ 10000 | 10.7 | 86.3
O=C1CCC(N2Cc3c(cc(F)c(C4CCN(Cc5ccc6c(c5)OC(F)(F)O6)CC4)c3F)C2=O)C(=O)N1 (stereo not drawn) [Compound 59, 3-(5-(1-((2,2-difluorobenzo[d][1,3]dioxol-5-yl)methyl)piperidin-4-yl)-4,6-difluoro-1-oxoisoindolin-2-yl)piperidine-2,6-dione] | ≥ 10000 | 0.01 | 92.2
O=C1CCC(N2Cc3c(cc(F)c(C4CCN(Cc5ccc6c(c5)CCC6)CC4)c3F)C2=O)C(=O)N1 (stereo not drawn) [Compound 60, 3-(5-(1-((2,3-dihydro-1H-inden-5-yl)methyl)piperidin-4-yl)-4,6-difluoro-1-oxoisoindolin-2-yl)piperidine-2,6-dione] | ≥ 10000 | 0.691 | 91.8
CS(=O)(=O)c1ccc(CN2CCC(c3c(F)cc4c(c3F)CN(C3CCC(=O)NC3=O)C4=O)CC2)cc1 (stereo not drawn) [Compound 62, 3-(4,6-difluoro-5-(1-(4-(methylsulfonyl)benzyl)piperidin-4-yl)-1-oxoisoindolin-2-yl)piperidine-2,6-dione] | ≥ 10000 | 0.168 | 92.6
O=C1CCC(N2Cc3c(cc(F)c(C4CCN(Cc5cccc6ncsc56)CC4)c3F)C2=O)C(=O)N1 (stereo not drawn) [Compound 64, 3-(5-(1-(benzo[d]thiazol-7-ylmethyl)piperidin-4-yl)-4,6-difluoro-1-oxoisoindolin-2-yl)piperidine-2,6-dione] | ≥ 10000 | 2.11 | 92.9
CN(CCN1CCC(c2c(F)cc3c(c2F)CN(C2CCC(=O)NC2=O)C3=O)CC1)Cc1ccccc1 (stereo not drawn) [Compound 65, 3-(5-(1-(2-(benzyl(methyl)amino)ethyl)piperidin-4-yl)-4,6-difluoro-1-oxoisoindolin-2-yl)piperidine-2,6-dione] | ≥ 10000 | 1.09 | 85.5
Cc1cc(Br)cnc1C(=O)N1CCC(c2c(F)cc3c(c2F)CN(C2CCC(=O)NC2=O)C3=O)CC1 (stereo not drawn) [Compound 66, 3-(5-(1-(5-bromo-3-methylpicolinoyl)piperidin-4-yl)-4,6-difluoro-1-oxoisoindolin-2-yl) piperidine-2,6-dione] | ≥ 10000 | 46.1 | 74.9
